For 65 molecules, glass transition temperature results are on record in the PolyMetriX glass transition set.

Each structure is given as a SMILES string.

In the case of `*C(=O)OC1CC(*)N(C(=O)OCc2ccccc2)C1` (repeat unit), the glass transition temperature was determined as 78.00 °C.

On to `*C(=O)OCCCCCCCCCCCCOC(=O)c1ccc2c(c1)C(=O)N(c1ccc(Oc3ccc(N4C(=O)c5ccc(*)cc5C4=O)cc3)cc1)C2=O` (repeat unit), for which the glass transition temperature amounted to 105.00 °C.

On to `*C(=O)OCCCCCCCCCOC(=O)c1ccc(N2C(=O)c3ccc(*)cc3C2=O)cc1` (repeat unit), for which the glass transition temperature is 62.00 °C.

In turn, `*C(=O)OCCCCCCCCOC(=O)c1ccc(N2C(=O)c3ccc(*)cc3C2=O)cc1` (repeat unit) displayed a glass transition temperature of 65.00 °C.

As for `*C(=O)OCCCCCCCOC(=O)c1ccc(N2C(=O)c3ccc(*)cc3C2=O)cc1` (repeat unit), the glass transition temperature amounted to 77.00 °C.

`*CC(F)(F)C(F)(F)C(F)(F)C(F)(F)COC(=O)O*` (repeat unit) yielded a glass transition temperature of -41.00 °C.

In turn, `*CC(F)(F)C(F)(F)C(F)(F)COC(=O)c1cccc(-c2cccc(C(=O)O*)c2)c1` (repeat unit) showed a glass transition temperature of 45.00 °C.

For the molecule `*CC(F)(F)C(F)(F)C(F)(F)COC(=O)c1cccc(C(F)(F)C(F)(F)C(F)(F)C(F)(F)C(F)(F)c2cccc(C(=O)O*)c2)c1` (repeat unit), the glass transition temperature is 29.00 °C.

Molecule `*CC(O)C(O)COC(=O)O*` (repeat unit) registered a glass transition temperature of 39.60 °C.

Take `*CC(O)COc1ccc(C(=O)c2ccc(O*)cc2)cc1` (repeat unit): the glass transition temperature stood at 130.00 °C.

Molecule `*CC1CCC(COC(=O)C2CCC(C(=O)O*)CC2)CC1` (repeat unit) displayed a glass transition temperature of 77.00 °C.

`*CC1CCC(COC(C)OC(=O)c2ccc(C(=O)OC(C)O*)c3ccccc23)CC1` (repeat unit) yielded a glass transition temperature of 60.00 °C.

In turn, `*CC1CCC(COC(C)OC(=O)c2ccc(C(=O)OC(C)O*)cc2)CC1` (repeat unit) yielded a glass transition temperature of 61.00 °C.

`*CCCC(=O)NNC(=O)c1ccc(C(=O)NNC(=O)CCCOc2ccc(O*)c(C)c2)cc1` (repeat unit) came in with a glass transition temperature of 139.00 °C.

Take `*CCCCCC(=O)NNC(=O)c1ccc(C(=O)NNC(=O)CCCCCOc2ccc(O*)c(C)c2)cc1` (repeat unit): the glass transition temperature came out at 126.00 °C.

`*CCCCCCCCCCCCOC(=O)c1ccc(-c2ccc(C(=O)O*)cc2)cc1` (repeat unit): the glass transition temperature amounted to 50.50 °C.

`*CCCCCCCCCCCOC(=O)c1ccc2cc(C(=O)O*)ccc2c1` (repeat unit): the glass transition temperature is 43.00 °C.

In turn, `*CCCCCCCCCCOC(=O)c1ccc2cc(C(=O)O*)ccc2c1` (repeat unit) gave a glass transition temperature of 50.50 °C.

For `*CCCCCCCCCCOC(=O)c1cccc(C(=O)O*)c1` (repeat unit), the glass transition temperature is -22.50 °C.

For the molecule `*CCCCCCCCCCOc1ccc(/C=C/c2ccc(OCCCCCCCCCCOP(=O)(O*)OCCCCCCCCCCOc3ccc(/N=N/c4ccc(Cl)cc4)cc3)cc2)cc1` (repeat unit), the glass transition temperature is 60.00 °C.

In the case of `*CCCCCCCCCCOc1ccc(/C=C2\CC/C(=C\c3ccc(OCCCCCCCCCCOP(=O)(O*)OCC)c(OC)c3)C2=O)cc1OC` (repeat unit), the glass transition temperature was 47.00 °C.

Turning to `*CCCCCCCCCOC(=O)c1ccc(C(=O)O*)cc1` (repeat unit), the glass transition temperature came to 35.00 °C.

In the case of `*CCCCCCCOC(=O)c1ccc2cc(C(=O)O*)ccc2c1` (repeat unit), the glass transition temperature was 52.50 °C.

With `*CCCCCCOC(=O)OCCCCCCCCCCOC(=O)OCCCCCCOc1ccc(C(=O)c2ccc(O*)cc2)cc1` (repeat unit), the glass transition temperature was -13.00 °C.

As for `*CCCCCCOC(=O)OCCCCCCCCCCOC(=O)OCCCCCCn1c(=O)c2cc3c(=O)n(*)c(=O)c3cc2c1=O` (repeat unit), the glass transition temperature is -2.00 °C.

Molecule `*CCCCCCOC(=O)OCCCCCCCCCOC(=O)OCCCCCCOc1ccc(C(=O)c2ccc(O*)cc2)cc1` (repeat unit) gave a glass transition temperature of -6.00 °C.

Turning to `*CCCCCCOC(=O)OCCCCCCCCOC(=O)OCCCCCCOc1ccc(C(=O)c2ccc(O*)cc2)cc1` (repeat unit), the glass transition temperature is -7.70 °C.

For the molecule `*CCCCCCOC(=O)OCCCCCCN1C(=O)c2ccc(-c3ccc4c(c3)C(=O)N(*)C4=O)cc2C1=O` (repeat unit), the glass transition temperature is 71.00 °C.

As for `*CCCCCCOC(=O)OCCCCCCN1C(=O)c2ccc(C(=O)c3ccc4c(c3)C(=O)N(*)C4=O)cc2C1=O` (repeat unit), the glass transition temperature was 76.00 °C.

Take `*CCCCCCOC(=O)OCCCOC(=O)OCCCCCCN1C(=O)c2ccc(C(=O)c3ccc4c(c3)C(=O)N(*)C4=O)cc2C1=O` (repeat unit): the glass transition temperature was 61.00 °C.

Molecule `*CCCCCOc1ccc(C(=O)OC(=O)c2ccc(O*)cc2)cc1` (repeat unit) displayed a glass transition temperature of 53.00 °C.

With `*CCOCCOc1ccc(C(=O)OC(=O)c2ccc(O*)cc2)cc1` (repeat unit), the glass transition temperature was 41.00 °C.

As to `*CCOc1ccc(C(=O)OC(=O)c2ccc(O*)cc2)cc1` (repeat unit), the glass transition temperature stood at 45.00 °C.

Regarding `*COCOc1ccc(C(=O)OC(=O)c2ccc(O*)cc2)cc1` (repeat unit), the glass transition temperature stood at 57.00 °C.

`*COc1ccc(C(=O)OC(=O)c2ccc(O*)cc2)cc1` (repeat unit) displayed a glass transition temperature of 84.00 °C.

The molecule `*Nc1c(C)c(C)c(C(=O)c2ccc(NC(=O)c3ccc(C(*)=O)cc3)cc2)c(C)c1C` (repeat unit) returned a glass transition temperature of 366.00 °C.

The molecule `*OC(=O)OCCCCCCOC(=O)OC1COC2C(*)COC12` (repeat unit) registered a glass transition temperature of 27.50 °C.

Molecule `*OC(=O)c1ccc(Cc2ccc(C(*)=O)cc2)cc1` (repeat unit) came in with a glass transition temperature of 122.00 °C.

Take `*OC(=O)c1ccc(SCCCCSc2ccc(C(*)=O)cc2)cc1` (repeat unit): the glass transition temperature amounted to 62.00 °C.

`*OC(=O)c1cccc(C(=O)OC2CC3CC(*)CC(C2)O3)c1` (repeat unit) registered a glass transition temperature of 113.00 °C.

Molecule `*OC(CCl)C(*)CCl` (repeat unit) yielded a glass transition temperature of 95.00 °C.

`*OC(F)(C(*)(F)F)C(F)(F)F` (repeat unit) gave a glass transition temperature of -73.00 °C.

`*OC(F)(F)COC(=O)c1cccc(C(=O)OCC(*)(F)F)c1` (repeat unit) displayed a glass transition temperature of 28.00 °C.

`*OC1C(CO)OC(*)C(NC(C)=O)C1O` (repeat unit) gave a glass transition temperature of 154.60 °C.

`*OC1C(COC(C)=O)OC(*)C(OC(C)=O)C1O` (repeat unit) yielded a glass transition temperature of 202.00 °C.

Take `*OC1CCC(OC(=O)OCCCCCCOC(*)=O)CC1` (repeat unit): the glass transition temperature was found to be 10.00 °C.

Molecule `*ON(C(F)(F)F)C(F)(C(*)(F)F)C(F)(F)F` (repeat unit) showed a glass transition temperature of -9.00 °C.

`*ON(C(F)(F)F)C(F)(F)C(*)(F)F` (repeat unit) yielded a glass transition temperature of -46.00 °C.

Regarding `*OP(=O)(Oc1ccccc1)OC(CCl)COc1ccc(S(=O)(=O)c2ccc(OCC(*)CCl)cc2)cc1` (repeat unit), the glass transition temperature was 48.00 °C.

In the case of `*O[Si](C)(C)O[Si](C)(C)O[Si](C)(C)O[Si](C)(C)O[Si](C)(C)OC1=C(*)c2cccc3cccc1c23` (repeat unit), the glass transition temperature is -54.00 °C.

Regarding `*Oc1cc(CCC)cc(OC(=O)c2cccc(C(*)=O)c2)c1` (repeat unit), the glass transition temperature stood at 129.00 °C.

`*Oc1cc(CCCCCCCCCCC)cc(OC(=O)c2cccc(C(*)=O)c2)c1` (repeat unit): the glass transition temperature came out at 34.50 °C.

Take `*Oc1cc(CCCCCCCCCCCCC)cc(OC(=O)c2cccc(C(*)=O)c2)c1` (repeat unit): the glass transition temperature worked out at 25.50 °C.

Take `*Oc1ccc(-c2ccc(OC(=O)c3ccc(Oc4ccc(C5(c6ccc(Oc7ccc(C(*)=O)cc7)cc6)CCC(C(C)(C)C)CC5)cc4)cc3)cc2C)c(C)c1` (repeat unit): the glass transition temperature worked out at 163.00 °C.

`*Oc1ccc(Cc2ccc(OC(=O)OCC3CCC(COC(*)=O)CC3)cc2)cc1` (repeat unit) had a glass transition temperature of 56.90 °C.

The molecule `*Oc1ccc(OC(=O)c2ccc(OCCCCCCOc3ccc(C(*)=O)cc3)cc2)cc1/N=N/c1ccc(C#N)cc1` (repeat unit) gave a glass transition temperature of 98.00 °C.

Molecule `*Oc1ccc(OC(=O)c2ccc(Sc3cccc(OC(=O)c4ccc(C(=O)Oc5cccc(Sc6ccc(C(*)=O)cc6)c5)cc4)c3)cc2)cc1C` (repeat unit) yielded a glass transition temperature of 135.00 °C.

For the molecule `*Oc1cccc(C(=O)OCC(F)(F)C(F)(F)C(F)(F)COC(=O)c2cccc(*)c2)c1` (repeat unit), the glass transition temperature worked out at 20.00 °C.

On to `*c1ccc(C(=O)OCCCCCCCCCCOc2ccc(/C=C3\CC/C(=C\c4ccc(OCCCCCCCCCCOC(=O)c5ccc(-c6nnc(*)o6)cc5)cc4)C3=O)cc2)cc1` (repeat unit), for which the glass transition temperature stood at 58.00 °C.

Regarding `*c1ccc(C(=O)OCCCCCCCCOc2ccc(/C=C3\CCC/C(=C\c4ccc(OCCCCCCCCOC(=O)c5ccc(-c6nnc(*)o6)cc5)cc4)C3=O)cc2)cc1` (repeat unit), the glass transition temperature worked out at 59.00 °C.

In turn, `*c1ccc(C(=O)OCCCCCCCCOc2ccc(/C=C3\CCCC/C(=C\c4ccc(OCCCCCCCCOC(=O)c5ccc(-c6nnc(*)o6)cc5)cc4)C3=O)cc2)cc1` (repeat unit) returned a glass transition temperature of 98.00 °C.

Consider `*c1ccc(Oc2ccc(C(=O)c3ccc(Oc4ccc(-c5c6c(c(*)c7ccccc57)C(=O)N(c5ccc(F)cc5)C6=O)cc4)cc3)cc2)cc1` (repeat unit), for which the glass transition temperature is 290.00 °C.

As to `*c1ccc(Oc2ccc(C(=O)c3ccc(Oc4ccc(-c5c6c(c(*)c7ccccc57)C(=O)N(c5ccccc5F)C6=O)cc4)cc3)cc2)cc1` (repeat unit), the glass transition temperature came out at 282.00 °C.

Take `*c1ccc(Oc2ccc(C(=O)c3ccc(Oc4ccc(-c5cc(*)n(-c6ccccc6)n5)cc4)cc3)cc2)cc1` (repeat unit): the glass transition temperature was 205.00 °C.

As for `*c1ccc(Oc2ccc(C(=O)c3ccc(Oc4ccc(-c5nc(-c6ccccc6)[nH]c5*)cc4)cc3)cc2)cc1` (repeat unit), the glass transition temperature is 259.00 °C.
